Assays:
Format in all cases: cell-based
[1] = system: Trypanosoma brucei rhodensiense (STIB 900 strain); assay: African trypanosome protozoa growth inhibition screening test; conditions: chemotherapy index = EC50 rat L6 cells / EC50 African trypanosome protozoa
[2] = system: Leishmania donovani (MHOM/ET/67/L82 strain); assay: Leishmania protozoa growth inhibition screening test; conditions: chemotherapy index = EC50 rat L6 cells / EC50 leishmania protozoa
[3] = system: Plasmodium falciparum K1 strain; assay: Chloroquine resistant-Plasmodium falciparum growth inhibition screening test; conditions: for EC50: Plasmodium falciparum, 72 h, chloroquine resistant K1 strain, 3H-hypoxanthine, 48 + 24 hours, read-out: 50% growth inhibition concentration P. falciparum K1; for Selective toxicity: chemotherapy index = EC50 rat L6 cells / EC50 chloroquine resistant P. falciparum
Experimental: In the present example, protozoa of Plasmodium falciparum K1 strain was used. RPMI-1640 medium sterilized with a filter to which human serum was added to be 5%, was used in the experiment. Malarial parasites were cultured under 3% O2 concentration, 4% Co2 concentration, 93% N2 concentration, and at a temperature of 37° C.
The compounds of the present invention to be used in the present test and the positive target drug (chloroquine) were dissolved in DMSO to make a test solution of a predetermined concentration. Cultured malarial parasite infected-erythrocytes were collected by centrifugation, and diluted with non-infected erythrocyte so that the early infection rate is 0.15%. Hematocrit level at that time was 2.5%. 200 μL of malaria infected solution was added to wells of a 96-well culture plate, and adjusted by adding a test solution containing drug of a predetermined concentration or a drug-free DMSO. Test solutions were taken by duplicates. After culturing for 48 hours at 37° C., 0.5 μCi radioactive tritium (3H)-labeled hypoxanthine was added to each well. After further culturing for 24 hours under the same conditions, it was collected on a glass fiber filter and washed with distilled water. Radiation intensity was measured with a beta plate liquid scintillation counter (Wallac), and malarial parasite infection rates of the test solution added group and of the control group were calculated. Growth inhibition rate was calculated with the following formula based on the malarial parasite infection rate obtained in the above, to obtain a 50% growth inhibition concentration (EC50). Growth inhibition rate (%)={1−(b−a)/(c−a)}×100 a: early infection rate b: infection rate when test solution was added c: infection rate of the control

[4] = system: Leishmania donovani (MHOM/ET/67/L82 strain); assay: Leishmania protozoa growth inhibition screening test; conditions: Leishmania donovani; MHOM/ET/67/L82 strain amastigote, pH 5.4, 72 hours, Alamar Blue; read-out: 50% growth inhibition concentration Leishmania donovani
Experimental: In the present example, Leishmania donovani (MHOM/ET/67/L82 strain) was used. Protozoa was subcultured in Syrian Golden hamster, from which an amastigote was obtained. In the experiment, SM medium supplemented with 10% heat-treated bovine fetal serum was used, which was adjusted to pH 5.4, and cultured in an atmosphere of 5% CO2 concentration, at 37° C.
The compounds of the present invention to be used in the present test and the positive target drug (miltefosine) were dissolved in DMSO to make a test solution of a predetermined concentration. After adding a medium containing a predetermined number of protozoa to wells of a 96-well culture plate and pre-treating, concentration of the amastigote was measured with CASY cell analysis system (Scharfe, Germany). Then, test solution containing a drug of a predetermined concentration or a drug-free DMSO was added. Test solutions were taken by duplicates. After culturing the culture plate for 72 hours in an incubator, growth inhibition activity was tested. Test was conducted as follows.
10 μL of Alamar Blue aqueous solution was added to each well, and the resultant was further cultured for 2 hours. Next, the culture plate was placed on a fluorescent micro-plate reader (Spectramax Gemeni XS; US Molecular Device), radiated at an excited wavelength of 536 nm. Fluorescent intensity was measured at 588 nm, and infection rate of leishmania protozoa of the test solution added-group and control was calculated, to obtain a 50% growth inhibition concentration (EC50). Growth inhibition rate (%)={1−(b−a)/(c−a)}×100 a: early infection rate b: infection rate when test solution was added c: infection rate of the control

[5] = system: Trypanosoma brucei rhodensiense (STIB 900 strain); assay: African trypanosome protozoa growth inhibition screening test; conditions: Trypanosoma brucei, STIB900; STIB 900 strain, blood stream form, 72 hours, Alamar Blue; read-out: 50% growth inhibiting concentration Trypanosoma brucei rhod.
Experimental: In the present example, protozoa of Trypanosoma brucei rhodensiense (STIB 900 strain), a trypamastigote living in blood stream, was used. The medium used in the experiment was a MEM medium which was sterilized with a filter and supplemented with 25 mM N-2-hydroxyethylpiperazine-2-ethansulfonic acid […]), 1 g/L glucose, 1% MEM non-essential amino acid, 0.2 mM 2-mercaptoethanol, 2 mM sodium pyruvate, 0.1 mM hypoxanthine, and 15% heat-treated horse serum. The protozoa was cultured in an atmosphere of CO2 concentration 5%, at a temperature of 37° C.
The compounds of the present invention to be used in the present test and the positive target drug (melarsoprol) were dissolved in DMSO to make a test solution of a predetermined concentration. A medium containing 8×10^3 protozoa, and a test solution containing a drug of a predetermined concentration or a drug-free DMSO were added to wells of a 96-well culture plate, and subsequently, medium was added so that the amount in each well becomes 100 μL. Test solutions were taken by duplicates. After culturing the culture plate for 72 hours in an incubator, growth inhibition activity was tested. Test was conducted as follows. 10 μL of Alamar Blue aqueous solution was added to each well, and the resultant was further cultured for 2 hours. Next, the culture plate was placed on a fluorescent micro-plate reader (Spectramax Gemeni XS; US Molecular Device), radiated at an excited wavelength of 536 nm. Fluorescent intensity was measured at 588 nm, to calculate the trypanosome protozoa infected rate of the test solution added-group, and of the control group. From the protozoan infection rate obtained in the above, growth inhibition rate was calculated with the following formula, to obtain a 50% growth inhibition concentration (EC50). Growth inhibition rate (%)={1−(b−a)/(c−a)}×100 a: early infection rate b: infection rate when test solution was added c: infection rate of the control

SMILES | Selective toxicity [1] | Selective toxicity [2] | EC50 [3] [nM] | Selective toxicity [3] | EC50 [4] [nM] | EC50 [5] [nM]
CCN1/C(=C/C=c2\s/c(=C\c3sc4c5ccccc5ccc4[n+]3CC)n(CC)c2=O)Sc2ccc3ccccc3c21 [A-1] | 1900 | 3600 | 11 | 2700 | 8.3 | 16
CCN1/C(=C/C=c2\s/c(=C\C3=[N+](CC)CCS3)n(CC)c2=O)C=Cc2ccccc21 [A-10] | 100 | 130 | 120 | 170 | 150 | 200
CCN1C(C)=CS/C1=C\C=c1/s/c(=C\c2sc3ccccc3[n+]2CC)n(CC)c1=O [A-15] | 250 | 130 | 76 | 291 | 170 | 89

Source: US8193224B2, “Medicinal composition for prevention or treatment of parasitic protozoan infection” (Fujifilm Corporation, priority 2004, dated 2012)
